Laboratory results taken from article PMC6979384, “Characterization of the plant homeodomain (PHD) reader family for their histone tail interactions” (Epigenetics & Chromatin, 2020).

Columns and labels:
Assay in all cases: Histone peptide microarray
Type in all cases: binding, human
[1] = tested on: PHRF1 (RP); conditions: PHRF1 (RP), GST-tagged; arrays performed twice, n of 4
Text: (§1) To more comprehensively define the histone interactions of the 31 PHD readers identified from the domain microarray analyses, we probed each on an alternate microarray platform containing a library of 293 synthetic histone peptides with single or combinatorial PTMs (Additional file 2: Figure S4 and Additional file 3: Table S2).
(§2) The 31 GST-tagged PHD readers identified in the PHD finger domain array were expressed and purified as previously. Histone peptide arrays and peptide pulldown assays were conducted as recently described (specifically, the optimized protocol from Petell et al. for the former).
(§3) Supplementary file 13072_2020_328_MOESM3_ESM.xlsx: Additional file 3: Table S2. […] Excel Tab Peptide List is a compiled list of the entire 293 histone peptide library with amino acid sequence ranges. […] Each number corresponds to the peptide number designated in Peptide List. Excel Tab Average Signals is a compiled set of binding data: chromatin reader at 0.5 μM vs. entire 293 peptide library. Data is presented as the average and standard deviation of 4 replicates. The average signals are colored to indicate signal intensity with green being strong and white being weak/low. […] Key: red= stronger relative binding; blue = weaker relative binding. Excel Tab Array info summary is a table summarizing the domains, sequence coverage, array signal range, and noise for each of the GST-tagged readers assayed on the peptide microarrays.

[2] = tested on: CHD5 (PCC); conditions: CHD5 (PCC), GST-tagged; arrays performed twice, n of 4
Text: as §1, §2, §3

[3] = tested on: PHF21A; conditions: PHF21A, GST-tagged; arrays performed twice, n of 4
Text: as §1, §2, §3

[4] = tested on: ING1; conditions: ING1, GST-tagged; arrays performed twice, n of 4
Text: as §1, §2, §3

[5] = tested on: KDM5B (3); conditions: KDM5B (3), GST-tagged; arrays performed twice, n of 4
Text: as §1, §2, §3

[6] = tested on: KDM5A (1); conditions: KDM5A (1), GST-tagged; arrays performed twice, n of 4
Text: as §1, §2, §3

[7] = tested on: ING5; conditions: ING5, GST-tagged; arrays performed twice, n of 4
Text: as §1, §2, §3

[8] = tested on: PHF13; conditions: PHF13, GST-tagged; arrays performed twice, n of 4
Text: as §1, §2, §3

[9] = tested on: MORC3 (CW); conditions: MORC3 (CW), GST-tagged; arrays performed twice, n of 4
Text: as §1, §2, §3

[10] = tested on: DIDO1; conditions: DIDO1, GST-tagged; arrays performed twice, n of 4
Text: as §1, §2, §3

[11] = tested on: TAF3; conditions: TAF3, GST-tagged; arrays performed twice, n of 4
Text: as §1, §2, §3

[12] = tested on: BAZ2B; conditions: BAZ2B, GST-tagged; arrays performed twice, n of 4
Text: as §1, §2, §3

[13] = tested on: CHD4 (PPCC); conditions: CHD4 (PPCC), GST-tagged; arrays performed twice, n of 4
Text: as §1, §2, §3

[14] = tested on: PHF2; conditions: PHF2, GST-tagged; arrays performed twice, n of 4
Text: as §1, §2, §3

[15] = tested on: ING3; conditions: ING3, GST-tagged; arrays performed twice, n of 4
Text: as §1, §2, §3

[16] = tested on: ING4; conditions: ING4, GST-tagged; arrays performed twice, n of 4
Text: as §1, §2, §3

[17] = tested on: CHD5 (PPCC); conditions: CHD5 (PPCC), GST-tagged; arrays performed twice, n of 4
Text: as §1, §2, §3

[18] = tested on: PHF23; conditions: PHF23, GST-tagged; arrays performed twice, n of 4
Text: as §1, §2, §3

[19] = tested on: KDM4C (TTP); conditions: KDM4C (TTP), GST-tagged; arrays performed twice, n of 4
Text: as §1, §2, §3

[20] = tested on: KDM5A (3); conditions: KDM5A (3), GST-tagged; arrays performed twice, n of 4
Text: as §1, §2, §3

[21] = tested on: ING2; conditions: ING2, GST-tagged; arrays performed twice, n of 4
Text: as §1, §2, §3

[22] = tested on: BPTF (PB); conditions: BPTF (PB), GST-tagged; arrays performed twice, n of 4
Text: as §1, §2, §3

[23] = tested on: AIRE (PP); conditions: AIRE (PP), GST-tagged; arrays performed twice, n of 4
Text: as §1, §2, §3

[24] = tested on: RAG2; conditions: RAG2, GST-tagged; arrays performed twice, n of 4
Text: as §1, §2, §3

[25] = tested on: MLL5; conditions: MLL5, GST-tagged; arrays performed twice, n of 4
Text: as §1, §2, §3

[26] = tested on: KDM7A; conditions: KDM7A, GST-tagged; arrays performed twice, n of 4
Text: as §1, §2, §3

[27] = tested on: PHF8; conditions: PHF8, GST-tagged; arrays performed twice, n of 4
Text: as §1, §2, §3

[28] = tested on: DPF2 (PPC2W2); conditions: DPF2 (PPC2W2), GST-tagged; arrays performed twice, n of 4
Text: as §1, §2, §3

[29] = tested on: SP140L; conditions: SP140L, GST-tagged; arrays performed twice, n of 4
Text: as §1, §2, §3

[30] = tested on: TRIM66 (PB); conditions: TRIM66 (PB), GST-tagged; arrays performed twice, n of 4
Text: as §1, §2, §3

Substance | Array Heatmap value (peptide array binding signal) [1] | Array Heatmap value (peptide array binding signal) [2] | Array Heatmap value (peptide array binding signal) [3] | Array Heatmap value (peptide array binding signal) [4] | Array Heatmap value (peptide array binding signal) [5] | Array Heatmap value (peptide array binding signal) [6] | Array Heatmap value (peptide array binding signal) [7] | Array Heatmap value (peptide array binding signal) [8] | Array Heatmap value (peptide array binding signal) [9] | Array Heatmap value (peptide array binding signal) [10] | Array Heatmap value (peptide array binding signal) [11] | Array Heatmap value (peptide array binding signal) [12] | Array Heatmap value (peptide array binding signal) [13] | Array Heatmap value (peptide array binding signal) [14] | Array Heatmap value (peptide array binding signal) [15] | Array Heatmap value (peptide array binding signal) [16] | Array Heatmap value (peptide array binding signal) [17] | Array Heatmap value (peptide array binding signal) [18] | Array Heatmap value (peptide array binding signal) [19] | Array Heatmap value (peptide array binding signal) [20] | other results
H4S1p + K5ac + K8ac + K12ac + K16ac: H4 1-23 | 0.5208 | 0.835 | 0.5171 | 0.5918 | 0.545 | 0.5302 | 0.4228 | 0.677 | 0.4113 | 0.7637 | 0.311 | 0.5342 | 0.615 | 0.5298 | 0.5554 | 0.5155 | 0.6446 | 0.5865 | 0.5634 | 0.4753 | Array Heatmap value (peptide array binding signal) [21]: 0.6187; Array Heatmap value (peptide array binding signal) [22]: 0.3984; Array Heatmap value (peptide array binding signal) [23]: 0.484; Array Heatmap value (peptide array binding signal) [24]: 0.2856; Array Heatmap value (peptide array binding signal) [25]: 0.5849; Array Heatmap value (peptide array binding signal) [26]: 0.3878; Array Heatmap value (peptide array binding signal) [27]: 0.3922; Array Heatmap value (peptide array binding signal) [28]: 0.7325; Array Heatmap value (peptide array binding signal) [29]: 0.3938; Array Heatmap value (peptide array binding signal) [30]: 0.6554
H4K5me1 + K8me1 + K12me1: H4 1-23 | 0.5051 | 0.851 | 0.4789 | 0.5585 | 0.4984 | 0.4935 | 0.3655 | 0.6372 | 0.3716 | 0.7167 | 0.2856 | 0.4829 | 0.619 | 0.5422 | 0.4977 | 0.4603 | 0.5726 | 0.5446 | 0.4976 | 0.4441 | Array Heatmap value (peptide array binding signal) [21]: 0.6061; Array Heatmap value (peptide array binding signal) [22]: 0.3553; Array Heatmap value (peptide array binding signal) [23]: 0.4682; Array Heatmap value (peptide array binding signal) [24]: 0.2518; Array Heatmap value (peptide array binding signal) [25]: 0.5583; Array Heatmap value (peptide array binding signal) [26]: 0.3674; Array Heatmap value (peptide array binding signal) [27]: 0.35; Array Heatmap value (peptide array binding signal) [28]: 0.7329; Array Heatmap value (peptide array binding signal) [29]: 0.3587; Array Heatmap value (peptide array binding signal) [30]: 0.6442
